Active and inactive are the calls of the source. The rule behind the calls is not given here.

The nature of this series: Cytotoxicity activity against human HepG2 cells assessed by CellTiter-Glo luminescent cell viability assay. It is filed as toxicity, cell-based. Further details: assay stage confirmatory assay, source tissue liver. The conditions noted are these: HepG2 cells, read-out: IC50 relative. Background: In ATP-based viability assays light output follows the ATP content of the culture.
Turning to `O=c1[nH]ccc2c(Br)cccc12`, the CC50 is 8.3 µM (inactive). With `CN1CCN(S(=O)(=O)c2cccc(C(=O)Nc3nc(-c4ccccc4)cs3)c2)CC1`, the CC50 was 12.5 µM (active). Under `CCN1CCS/C1=C\C=C\C1=[N+](CC)CCS1` stands 6.3 µM (active); under `Cc1oc2c(c1C(=O)c1ccc(Cl)cc1)C(=O)C(=O)c1ccccc1-2`, 31.4 µM (inactive). The same measure for `O=C(Nc1nnc(-c2ccccc2)o1)c1cccc(S(=O)(=O)N2CCOCC2)c1`: 8.9 µM (active); for `COc1ccc(NC(=O)c2cc(-c3ccccc3O)no2)cc1`: 12.3 µM (active); for `O=C1C=C(N(CCO)Cc2ccccc2)c2ccccc2C1=O`: 4.4 µM (active). The same measure for `CN(C)/C=C/C=C/C=C/C1=[N+](C)c2ccccc2C1(C)C`: 10.3 µM (active); for `CC(C)c1ccc(S(=O)(=O)/N=C2/C=C(Sc3nc[nH]n3)C(=O)c3ccccc32)cc1`: 5.8 µM (active); for `O=S(=O)(Nc1cc(Sc2nc[nH]n2)c(O)c2ccccc12)c1ccc(Cl)cc1`: 5.7 µM (active). As for `C=C(C)[C@@H]1Cc2c(ccc3c2O[C@H]2COc4cc(OC)c(OC)cc4[C@H]2C3=O)O1`, the CC50 is 0.3 µM (active).

Turning to `COc1ccc(-n2ccc(C(=O)Nc3cc(Cl)c(=O)n(C)c3)n2)cc1`, the CC50 is 7.7 µM (active). Take `CC(C)N1CCC(NC(=O)CN2CCCN(Cc3ccccc3)c3ccccc32)CC1`: the CC50 was 12.4 µM (active). The same measure for `COC[C@H](C)Nc1cccc(N(C)C(C)C)c1`: 8.6 µM (active); for `Cc1ccc(S(=O)(=O)/N=C2\C=C(Sc3nc[nH]n3)C(=O)c3ccccc32)cc1`: 4.8 µM (active).

As for `Cc1cc(OCC(=O)Nc2nc(-c3ccccn3)cs2)no1`, the CC50 is 8.8 µM (active).

As for `CNc1nc(N2CCCO[C@@H](CN)C2)nc2ccccc12`, the CC50 was 6.4 µM (active). The same measure for `CC(C)c1cnc(NC(=O)N2CC3(CN(C)C(=O)O3)C2)s1`: 12.7 µM (inactive); for `CCN(C)C[C@H]1CCN(Cc2ccc(OCc3ccccc3F)nc2)C1`: 6.7 µM (active); for `Cc1ccc(-c2nc(C#N)c(S(=O)(=O)N(C)CCO)o2)cc1`: 7.3 µM (active). Regarding `F[C@H](c1nc(-c2ccc(OCc3cccnc3)cc2)no1)C1CNC1`, the CC50 is 8.2 µM (active). The same measure for `O=C(Nc1cccc2cccnc12)c1cn2ccccc2n1`: < 0.1 µM (active); for `CCOc1cc(F)ccc1NC(=O)c1csc(-c2cnn(C)c2)n1`: 0.4 µM (active); for `CC(C)c1ccc(NC(=O)c2ccc(N3CCOCC3)nc2)cc1`: 10.5 µM (inactive). The same measure for `CN(C)c1ccc(Cl)cc1NC(=O)c1cn(CCC2CCCCN2)nn1` (stereo not given): 6.8 µM (active); for `C#CC(=O)NCCNc1nc(C)nc(C)c1Br`: 0.8 µM (active); for `CCc1cccc2c(C3CCNCC3)c[nH]c12`: 11.4 µM (active). Under `CCNc1cc2[o+]c3cc(NCC)c(C)cc3c(-c3ccccc3C(=O)OCC)c2cc1C` stands 1 µM (active); under `CCN(CC)Cc1ccccc1CNC(=O)N(CC)C[C@H]1COc2ccccc2O1`, 10.8 µM (active); under `O=C(Nc1ncccc1O)c1ccc(OCc2cn3ccccc3n2)cc1`, 6.7 µM (active).

For the compound `COc1ccc(OC)c(C(=O)Nc2nc3ccccc3[nH]2)c1`, the CC50 was 4.7 µM (active). Under `COc1ccc2oc(C(=O)Nc3ncccc3O)c(C)c2c1` stands 47.2 µM (inactive). The same measure for `CCCCOc1ccc(C(=O)N2CCN(S(=O)(=O)c3ccc4c(c3)OCCCO4)CC2)cc1`: 3.2 µM (inactive); for `COc1cc(C(=O)Nn2cnc3ccccc32)cc(Cl)c1OCC(N)=O`: 8.3 µM (inactive); for `c1ccc(COc2ccc3c(c2)CCNCC3)cc1`: 10.8 µM (active).

On to `Cc1occc1C(=O)Nc1ccc(N2CCCC2)cn1`, for which the CC50 is 8.8 µM (active). Under `Cc1cc(N)n(S(=O)(=O)c2oc(-c3ccccc3)nc2C#N)n1` stands 7.6 µM (active); under `Cc1ccccc1-c1nc(C#N)c(NCC(C)N2CCN(C)CC2)o1` (stereo not given), 10.8 µM (active); under `COc1ccc2nc(NC(=O)CN3C(=O)c4ccccc4S3(=O)=O)sc2c1`, 14.8 µM (inactive). Under `CCC[C@]1(C)NC(=O)N(Cc2cc(-c3ccccc3)on2)C1=O` stands 2.4 µM (active); under `N#Cc1cc(NC[C@H](O)c2ccco2)nc2ccc(Cl)cc12`, 1.3 µM (active); under `Fc1ccc2[nH]c(CCNc3ncc(Cl)cn3)nc2c1`, 6.7 µM (active). Under `O=C1COc2cc(C(=O)Nc3nc(-c4ccccn4)cs3)ccc2N1` stands 1.5 µM (active); under `CCC1(CC)CCN(c2ncnc3[nH]ccc23)CC1`, 8.3 µM (active); under `CC(C)(C)n1c(NC(=O)c2ccncc2)nc2ccccc21`, 15.2 µM (active).

In the case of `CC1(C)[C@H]2CC=C(CCNC(=O)C3CCN(C(=O)c4ccccn4)CC3)[C@@H]1C2`, the CC50 was 4.5 µM (inactive). Under `O=C(Cc1cnn(-c2ccccc2)c1)N1CCN(S(=O)(=O)c2ccc3c(c2)OCCCO3)CC1` stands 8.6 µM (active); under `Cc1cc(=O)n2nc(Sc3ncc4ccccn34)sc2n1`, 12.1 µM (active); under `O=C(NCc1ccc(-n2ccnc2)nc1)[C@@H]1CC(c2ccccc2)=NO1`, 6.3 µM (active).

On to `CC(C)c1ccc(CN2CCN(C(=O)CN(C)C(=O)c3ccco3)CC2)cc1`, for which the CC50 was 4.4 µM (active). Under `COc1ccc(CCN2Cc3ccc(N)cc3C2)cc1` stands 20.2 µM (inactive); under `CCc1ccc(NC(=O)c2nc(S(C)(=O)=O)ncc2Br)cc1`, 3 µM (active); under `COCC1CCN(Cc2ccc(C(C)C)cc(O)c2=O)CC1`, 11.8 µM (active). Take `COc1ccc(Cl)cc1CNCC1CCN(C[C@H](C)O)CC1`: the CC50 was 10.2 µM (active). Under `Oc1ccc2[nH]ncc2c1Br` stands 7.1 µM (active). On to `CC(C)c1cnc(NC(=O)N2CC[C@H](Nc3ccc4nccn4n3)C2)s1`, for which the CC50 was 3.2 µM (active). Under `Cc1cc(NC(=O)N[C@H]2CCN(CC3CCCC3)C2)cc(N2CCN(C)CC2)c1` stands 9.3 µM (active); under `O=C(Nc1cnn(-c2ccccn2)c1)c1ccc(O)c(Cl)c1`, 50 µM (inactive). Under `CC(=O)c1ccc(S(=O)(=O)Nc2cccc3cccnc23)cc1` stands 3.5 µM (active); under `CN([C@H]1CCN(c2ccccc2F)C1=O)S(=O)(=O)c1cccc2cnccc12`, 4.3 µM (active). Under `CC(C)c1ccc(CNCCN2CCCCC2CO)cc1` (stereo not given) stands 4.3 µM (active); under `CCN(CC)c1ccc(/C=C/C2=[N+](C)c3ccccc3C2(C)C)cc1`, 1.2 µM (active); under `Cc1nn(-c2cccc(Cl)c2)nc1C(=O)NC1CCN(C)CC1`, 9.4 µM (active).

Turning to `COc1c(Br)cc(Cl)cc1S(=O)(=O)N1CCC[C@H](N)C1`, the CC50 is 16.1 µM (inactive). The same measure for `O=C(Nc1cccnc1)N1CCN(c2ccc(S(=O)(=O)N3CCOCC3)cn2)CC1`: 2.5 µM (active).

For the compound `Cc1cccc(OC[C@@H](O)CN2CCC(C(=O)N3CCc4ccccc43)CC2)c1`, the CC50 is 11.3 µM (active). The same measure for `O=C(CN1C(=O)COc2ccc(Cl)cc21)N1CCC(c2c[nH]c3ncccc23)CC1`: 8.8 µM (active).

As for `O=C(Cn1ncc(Cl)c(Cl)c1=O)N1CCC[C@H]1c1ccc2c(c1)OCCCO2`, the CC50 was 7.1 µM (active). Under `CCC1CN(Cc2ccccc2OCc2cccc(OC)c2)CCN1C` (stereo not given) stands 17.8 µM (inactive); under `O=C(NCCc1ccco1)c1cc2ccccc2cc1O`, 8.5 µM (active). Under `CCN(CC)c1cc(C)nc(Nc2ccc(NC(=O)C(C)C)cc2)n1` stands 6.8 µM (active); under `CCn1c(SCc2cc(=O)n3ccsc3n2)nc2sc(C)c(C)c2c1=O`, 20.2 µM (inactive). As for `Cc1cc(N2CCN([C@@H](C)C(=O)Nc3ccc(C#N)cc3)CC2)nc(C(C)C)n1`, the CC50 is 11.2 µM (active).

In the case of `C[C@@H](NC1CCN(c2ccc(F)c(F)c2)CC1)[C@@H](O)c1ccc(O)cc1`, the CC50 is 14.6 µM (active). The same measure for `Cc1cc(C)cc(OC[C@@H](O)CN2CCC(C(=O)Nc3ccccc3)CC2)c1`: 12.1 µM (active). Under `N[C@@H](Cc1ccccc1)C(=O)N1C/C(=C\c2ccc(Cl)c(Cl)c2)C(=O)/C(=C/c2ccc(Cl)c(Cl)c2)C1` stands 7.9 µM (active).

Consider `CCN(C(=O)c1ccc(-n2ccnc2)nc1)S(=O)(=O)c1ccc(C)cc1`, for which the CC50 was 11.7 µM (inactive). Under `COc1ncccc1-c1csc(-c2ccoc2)n1` stands 1 µM (active); under `O=S(=O)(Nc1cccc2cccnc12)c1ccccc1F`, 2.6 µM (active); under `Clc1cccc(N2CCN(C[C@H]3CCC4(CNC4)O3)CC2)c1`, 7 µM (active). Under `O=C(Nc1nc(-c2ccc(F)cc2)n[nH]1)c1ccco1` stands 3.4 µM (active). The same measure for `O=C(Nc1cccc2cccnc12)c1cccc2cn[nH]c12`: 50 µM (inactive); for `O=C(Nc1ccc(Cn2cnc3ccccc32)cc1)c1ccc(=O)[nH]n1`: 9.7 µM (inactive); for `CC[n+]1c(/C=C2/C=CN(C)c3ccccc32)ccc2ccccc21`: 2.3 µM (active).

On to `CCOc1ccc(S(=O)(=O)N(C)c2ccccc2)cc1`, for which the CC50 was 7.5 µM (inactive).

As for `O=C(Nc1ccccc1O)c1cccc(NC(=O)c2cccs2)c1`, the CC50 was 7.1 µM (active).

As to `COc1ccccc1OCC(=O)Nc1nc(-c2ccccn2)cs1`, the CC50 was 2.7 µM (active).

Take `CN[C@H]1CCCN(C(=O)c2ccc(CN)cc2)C1`: the CC50 is 14.3 µM (inactive).

Turning to `Cn1ncnc2c(=O)n(C)c(=O)nc1-2`, the CC50 is 0.2 µM (active). The same measure for `CCN(CC)C(=S)SSC(=S)N(CC)CC`: 0.3 µM (inactive).
